# Laboratory results from US10273468B2 (priority 2016, dated 2019).
# Entries after “also recorded” stand apart in the source; their conditions may differ. Read-outs that look alike come from different tables or passages of the source.
# Columns and labels:
# Tet(55) [1] = molecular target: T1, Tet(55) (Unknown prokaryotic organism, UniProt A0A0H4TXY1); assay: biochemical
# Tet(50) [2] = molecular target: T2, Tet(50) (Unknown prokaryotic organism, UniProt A0A059WYP6); format: biochemical; conditions: 1 mM anhydrotetracycline, 0.1 mM tetracycline
# Tet(51) = format: biochemical; conditions: 1 mM anhydrotetracycline, 0.1 mM tetracycline
# Tet(55) [3] = molecular target: T1, Tet(55); format: biochemical; conditions: 1 mM anhydrotetracycline, 0.1 mM tetracycline
# Tet(56) [4] = molecular target: T3, Tet(56) (Legionella longbeachae serogroup 1, UniProt D3HKY4); format: biochemical, L. longbeachae; conditions: 1 mM anhydrotetracycline, 0.1 mM tetracycline
# Tet(X) [5] = molecular target: T4, Tet(X) (Bacteroides thetaiotaomicron, UniProt Q93L51); format: biochemical; conditions: 1 mM anhydrotetracycline, 0.1 mM tetracycline
# L. longbeacheae = format: cell-based
# Tet(47-56) = conditions: by Tet(47-56); cited from earlier work
# Tet(X) [6] = molecular target: T4, Tet(X); conditions: by Tet(X); cited from earlier work
# Tet(50) [7] = molecular target: T2, Tet(50); assay: biochemical
# Tet(55) [8] = molecular target: T1, Tet(55); assay: biochemical; remark: listed apart in the source
# Tet(56) [9] = molecular target: T3, Tet(56); assay: biochemical
smiles,measurement,setting,value
"Cc1c2c(c(O)c3c(O)ccc(I)c13)C(=O)[C@]1(O)C(=O)C(C(N)=O)=C(O)[C@@H](N(C)C)[C@@H]1C2 [anhydroiodotetracycline, (4S,4aS,12aS)-4-(dimethylamino)-3,10,11,12a-tetrahydroxy-7-iodo-6-methyl-1,12-dioxo-1,4,4a,5,12,12a-hexahydrotetracene-2-carboxamide]",IC50,Tet(55) [1],6 ± 1 µM
"Cc1c2c(c(O)c3c(O)ccc(Cl)c13)C(=O)[C@]1(O)C(=O)C(C(N)=O)=C(O)[C@@H](N(C)C)[C@@H]1C2 [anhydrochlortetracycline, (4S,4aS,12aS)-7-chloro-4-(dimethylamino)-3,10,11,12a-tetrahydroxy-6-methyl-1,12-dioxo-1,4,4a,5,12,12a-hexahydrotetracene-2-carboxamide]",IC50,Tet(55) [1],9 ± 1 µM
"CN(C)[C@@H]1C(O)=C(C(N)=O)C(=O)[C@@]2(O)C(=O)c3c(cc4c(Cl)ccc(O)c4c3O)C[C@@H]12 [anhydrodemeclocycline, (4S,4aS,12aS)-7-chloro-4-(dimethylamino)-3,10,11,12a-tetrahydroxy-1,12-dioxo-1,4,4a,5,12,12a-hexahydrotetracene-2-carboxamide]",IC50,Tet(55) [1],9 ± 1 µM
Cc1c2c(c(O)c3c(O)cccc13)C(=O)[C@]1(O)C(=O)C(C(N)=O)=C(O)[C@@H](N(C)C)[C@@H]1C2 [anhydrotetracycline],effect on enzymatic tetracycline degradation (HPLC),Tet(50) [2],sufficient to decrease or prevent tetracycline degradation
same,effect on enzymatic tetracycline degradation (HPLC),Tet(51),sufficient to decrease or prevent tetracycline degradation
same,effect on enzymatic tetracycline degradation (HPLC),Tet(55) [3],sufficient to decrease or prevent tetracycline degradation
same,effect on enzymatic tetracycline degradation (HPLC),Tet(56) [4],tetracycline is not degraded
same,effect on enzymatic tetracycline degradation (HPLC),Tet(X) [5],able to prevent tetracycline degradation; also recorded: sufficient to decrease or prevent tetracycline degradation
same,synergy with tetracycline,L. longbeacheae,synergy was not observed
same,enzymatic degradation,Tet(47-56),not degraded
same,enzymatic degradation,Tet(X) [6],slowly degraded
same,IC50,Tet(50) [7],83.2 ± 1.2 µM
same,IC50,Tet(55) [8],25.6 ± 1.2 µM
same,IC50,Tet(56) [9],37.1 ± 1.1 µM
